These compounds were tested on Nicotiana benthamiana (assay: Test Example 5: growth promotion under low-temperature stress by hydroponics of Nicotiana benthamiana, 1 ppm). Settings: 1 ppm in medium, low-temperature stress 7 days at 1.5±1.0° C., green leaf area 3 days later, equation (1).
Format: in vivo
How it was run: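 Seeds were grown in half-strength Murashige–Skoog medium (pH 5.8) containing 1 ppm compound for 7 days at 22 °C, then chilled 7 days at 1.5±1.0 °C and recovered 3 days at 22 °C. Green leaf area was imaged. Relative leaf area = 100×(treated − untreated)/(unstressed untreated − stressed untreated).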
For `CNC(=O)c1cc2cc(C(F)(F)F)ccc2o1` [Compound 52], the relative leaf area (% of untreated control) at 1 ppm was no less than 5%.
`COC(=O)c1nc2cc(C(F)(F)F)ccc2o1` [Compound 17, methyl 5-trifluoromethylbenzoxazole-2-carboxylate] was tested, and the relative leaf area (% of untreated control) at 1 ppm was no less than 5%.
`COC(=O)c1oc2ccc(C(F)(F)F)cc2c1NC(=O)C(F)(F)F` [Compound 65] showed a relative leaf area (% of untreated control) at 1 ppm of no less than 5%.
`O=C(OCc1ccccc1)c1cc2cc(C(F)(F)F)ccc2o1` [Compound 56] gave a relative leaf area (% of untreated control) at 1 ppm of no less than 5%.
In the case of `O=C(NCc1ccccc1)c1oc2ccc(C(F)(F)F)cc2c1C(F)(F)F` [Compound 77], the relative leaf area (% of untreated control) at 1 ppm is reported as no less than 5%.
`Cc1c(C(=O)O)oc2ccccc12` [Compound 36] showed a relative leaf area (% of untreated control) at 1 ppm of no less than 5%.
For `NC(=O)c1oc2ccc(C(F)(F)F)cc2c1C(F)(F)F` [Compound 74], the relative leaf area (% of untreated control) at 1 ppm was no less than 5%.
`COC(=O)c1oc2ccccc2c1C(F)(F)F` [Compound 83] was tested, and the relative leaf area (% of untreated control) at 1 ppm was no less than 5%.
`COC(=O)c1oc2ccc(C(F)(F)F)cc2c1C(F)(F)F` [Compound 70] gave a relative leaf area (% of untreated control) at 1 ppm of no less than 5%.
Compound `O=C(O)c1nc2c(F)cc(F)cc2s1` [Compound 86] has a relative leaf area (% of untreated control) at 1 ppm of no less than 5%.
`Cc1c(C(=O)O)oc2ccc(C(F)(F)F)cc12` [Compound 34] showed a relative leaf area (% of untreated control) at 1 ppm of no less than 5%.
`NC(=O)c1cc2cc(C(F)(F)F)ccc2o1` [Compound 51] showed a relative leaf area (% of untreated control) at 1 ppm of no less than 5%.
For `O=C(Nc1ccccc1)c1cc2cc(C(F)(F)F)ccc2o1` [Compound 53], the relative leaf area (% of untreated control) at 1 ppm was no less than 5%.
`COC(=O)c1oc2ccc(C(F)(F)F)cc2c1N(C(C)=O)C(C)=O` [Compound 64] was tested, and the relative leaf area (% of untreated control) at 1 ppm was no less than 5%.
In the case of `COC(=O)c1oc2ccccc2c1C` [Compound 37], the relative leaf area (% of untreated control) at 1 ppm is reported as no less than 5%.
`O=C(O)c1oc2ccccc2c1C(F)(F)F` [Compound 82] showed a relative leaf area (% of untreated control) at 1 ppm of no less than 5%.
For `COC(=O)c1oc2ccc(C(F)(F)F)cc2c1NS(=O)(=O)c1ccccc1` [Compound 68], the relative leaf area (% of untreated control) at 1 ppm was no less than 5%.
Compound `O=C(Oc1ccccc1)c1cc2cc(C(F)(F)F)ccc2o1` [Compound 55] has a relative leaf area (% of untreated control) at 1 ppm of no less than 5%.
`O=C(O)c1oc2ccc(C(F)(F)F)cc2c1C(F)(F)F` [Compound 69] was tested, and the relative leaf area (% of untreated control) at 1 ppm was no less than 5%.

The compounds below were run on Corn seeds (variety: Pioneer 120 31P41) (assay: Test Example 14: growth promotion under low-temperature stress by soil drench treatment of corn). Settings: Zea mays, 120 h; soil drench 20 ml, concentration tested 3 ppm; low-temperature stress 5 days at 2.5° C.; health score 0-5, average of 4 individuals; read-out: Relative value of score (%- untreated control plot).
Format: in vivo
How it was run: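 7-day-old corn seedlings soil-drenched with 20 ml compound solution (from 1,000× DMSO stock in water; control 0.1% DMSO), grown 2 days at 27 °C, then 5 days at 2.5 °C, then 4 days recovery at 27 °C. Health scored 1–5 by number of leaves ≥⅔ healthy; mean of 4 plants.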
`COC(=O)c1nc2cc(C(F)(F)F)ccc2o1` [Compound 17, methyl 5-trifluoromethylbenzoxazole-2-carboxylate] was tested, and the change in vivo at 3 ppm was greater than 5%.

Same assay, conditions: Zea mays, 120 h; soil drench 20 ml, concentration tested 10 ppm; low-temperature stress 5 days at 2.5° C.; health score 0-5, average of 4 individuals; read-out: Relative value of score (%- untreated control plot)
With `COC(=O)c1oc2ccc(C(F)(F)F)cc2c1O` [Compound 50] the change in vivo at 10 ppm was greater than 5%.
With `COC(=O)c1cc2c(C(F)(F)F)cccc2o1` [Compound 45] the change in vivo at 10 ppm was greater than 5%.
For `COC(=O)c1cc2ccccc2o1` [Compound 1], the change in vivo at 10 ppm was greater than 5%.
Compound `COC(=O)c1cc2cc(C(F)(F)F)ccc2o1` [Compound 3, methyl 5-(trifluoromethyl)benzofuran-2-carboxylate] has a change in vivo at 10 ppm greater than 5%.
`Cc1c(C(=O)O)oc2ccc(C(F)(F)F)cc12` [Compound 34] showed a change in vivo at 10 ppm greater than 5%.
For `NC(=O)c1oc2ccccc2c1C(F)(F)F` [Compound 85], the change in vivo at 10 ppm was greater than 5%.
With `O=C(O)c1oc2ccccc2c1C(F)(F)F` [Compound 82] the change in vivo at 10 ppm was greater than 5%.
